What was measured:
[1] = molecular target: human orexin-2 receptor (Homo sapiens (Human), UniProt O43614); experiment: Intracellular calcium measurements (FLIPR), antagonism of orexin-A response; assay type: cell-based; conditions: CHO cells expressing human orexin-2 receptor, 3 nM orexin-A, geometric mean if determined several times, read-out: IC50 OX2
How it was run: (§1)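 CHO cells expressing human OX1 or OX2 receptor, loaded with fluo-4 AM plus probenecid, preincubated with antagonist 120 min before 3 nM orexin-A challenge. FLIPR calcium peak heights compared with agonist-plus-vehicle response. IC50 possibly normalized to on-plate reference; geometric mean of repeat determinations.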

[2] = molecular target: human orexin-1 receptor (Homo sapiens (Human), UniProt O43613); experiment: as above; assay type: cell-based; conditions: CHO cells expressing human orexin-1 receptor, 3 nM orexin-A, geometric mean if determined several times, read-out: IC50 OX1
How it was run: as §1

Chain of human orexin-1 receptor (O43613 whole entry): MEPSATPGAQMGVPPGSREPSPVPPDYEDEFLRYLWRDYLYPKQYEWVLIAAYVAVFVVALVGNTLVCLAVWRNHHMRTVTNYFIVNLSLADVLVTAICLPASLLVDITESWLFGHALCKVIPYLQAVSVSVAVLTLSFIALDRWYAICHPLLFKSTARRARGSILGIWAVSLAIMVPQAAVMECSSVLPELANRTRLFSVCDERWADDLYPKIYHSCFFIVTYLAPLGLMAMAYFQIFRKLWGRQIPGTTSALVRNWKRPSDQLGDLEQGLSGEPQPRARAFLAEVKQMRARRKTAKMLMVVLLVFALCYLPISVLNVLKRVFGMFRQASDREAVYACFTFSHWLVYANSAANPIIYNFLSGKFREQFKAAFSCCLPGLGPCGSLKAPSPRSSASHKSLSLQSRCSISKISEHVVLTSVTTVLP
Chain of human orexin-2 receptor (O43614 whole entry): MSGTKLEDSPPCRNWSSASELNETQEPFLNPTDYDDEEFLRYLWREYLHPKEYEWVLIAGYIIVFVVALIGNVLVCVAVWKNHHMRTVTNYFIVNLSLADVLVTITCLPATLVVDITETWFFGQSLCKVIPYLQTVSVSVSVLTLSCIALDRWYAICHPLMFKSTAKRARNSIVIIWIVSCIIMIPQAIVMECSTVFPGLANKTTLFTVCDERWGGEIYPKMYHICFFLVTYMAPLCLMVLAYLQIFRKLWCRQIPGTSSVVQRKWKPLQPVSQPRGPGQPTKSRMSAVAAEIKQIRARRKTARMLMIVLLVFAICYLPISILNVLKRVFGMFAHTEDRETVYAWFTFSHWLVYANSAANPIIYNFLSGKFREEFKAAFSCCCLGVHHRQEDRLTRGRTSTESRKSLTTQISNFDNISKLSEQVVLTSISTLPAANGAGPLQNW

| SMILES | IC50 [1] [µM] | IC50 [2] [µM] |
| --- | --- | --- |
| Cc1c(Cl)cccc1-c1noc([C@@H]2CCN2C(=O)c2ncsc2-c2ccccc2)n1 [Example 60, {(S)-2-[3-(3-Chloro-2-methyl-phenyl)-[1,2,4]oxadiazol-5-yl]-azetidin-1-yl}-(5-phenyl-thiazol-4-yl)-methanone] | 0.5 | 1.2 |
| Cc1c(Cl)cccc1-c1noc([C@@H]2CCN2C(=O)c2ncsc2-c2cccc(Cl)c2)n1 [Example 61, {(S)-2-[3-(3-Chloro-2-methyl-phenyl)-[1,2,4]oxadiazol-5-yl]-azetidin-1-yl}-[5-(3-chloro-phenyl)-thiazol-4-yl]-methanone] | 0.367 | 0.993 |
| Cc1ccc(-c2sc(C)nc2C(=O)N2CC[C@H]2c2nc(-c3cccc(Cl)c3C)no2)cc1 [Example 62, {(S)-2-[3-(3-Chloro-2-methyl-phenyl)-[1,2,4]oxadiazol-5-yl]-azetidin-1-yl}-(2-methyl-5-p-tolyl-thiazol-4-yl)-methanone] | 0.17 | 0.562 |
| Cc1nc(C(=O)N2CC[C@H]2c2nc(-c3cccc(Cl)c3C)no2)c(-c2ccccc2C)s1 [Example 63, {(S)-2-[3-(3-Chloro-2-methyl-phenyl)-[1,2,4]oxadiazol-5-yl]-azetidin-1-yl}-(2-methyl-5-o-tolyl-thiazol-4-yl)-methanone] | 0.448 | 1.13 |
| Cc1cccc(-n2nccn2)c1C(=O)N1CC[C@H]1c1nc(-c2cccc(Cl)c2C)no1 [Example 64, {(S)-2-[3-(3-Chloro-2-methyl-phenyl)-[1,2,4]oxadiazol-5-yl]-azetidin-1-yl}-(2-methyl-6-[1,2,3]triazol-2-yl-phenyl)-methanone] | 0.069 | 0.812 |
| Cc1c(Cl)cccc1-c1noc([C@@H]2CCN2C(=O)c2cc(OC(F)(F)F)ccc2-n2nccn2)n1 [Example 65, {(S)-2-[3-(3-Chloro-2-methyl-phenyl)-[1,2,4]oxadiazol-5-yl]-azetidin-1-yl}-(2-[1,2,3]triazol-2-yl-5-trifluoromethoxy-phenyl)-methanone] | 0.676 | 2.73 |
| Cc1c(Cl)cccc1-c1noc([C@@H]2CCN2C(=O)c2cc(C(F)(F)F)ccc2-n2nccn2)n1 [Example 66, {(S)-2-[3-(3-Chloro-2-methyl-phenyl)-[1,2,4]oxadiazol-5-yl]-azetidin-1-yl}-(2-[1,2,3]triazol-2-yl-5-trifluoromethyl-phenyl)-methanone] | 0.39 | 1.6 |
| Cc1cccc(-c2ocnc2C(=O)N2CC[C@H]2c2nc(-c3cccc(Cl)c3C)no2)c1 [Example 67, {(S)-2-[3-(3-Chloro-2-methyl-phenyl)-[1,2,4]oxadiazol-5-yl]-azetidin-1-yl}-(5-m-tolyl-oxazol-4-yl)-methanone] | 0.631 | 0.437 |
| Cc1c(Cl)cccc1-c1noc([C@@H]2CCN2C(=O)c2ccccc2-n2nccn2)n1 [Example 68, {(S)-2-[3-(3-Chloro-2-methyl-phenyl)-[1,2,4]oxadiazol-5-yl]-azetidin-1-yl}-(2-[1,2,3]triazol-2-yl-phenyl)-methanone] | 0.074 | 1.09 |
| Cc1cccc(-c2scnc2C(=O)N2CC[C@H]2c2nc(-c3cccc(Cl)c3C)no2)c1 [Example 69, {(S)-2-[3-(3-Chloro-2-methyl-phenyl)-[1,2,4]oxadiazol-5-yl]-azetidin-1-yl}-(5-m-tolyl-thiazol-4-yl)-methanone] | 0.24 | 0.864 |
| Cc1cc(C(=O)N2CC[C@H]2c2nc(-c3cccc(Cl)c3C)no2)c(-n2nccn2)cc1C [Example 70, {(S)-2-[3-(3-Chloro-2-methyl-phenyl)-[1,2,4]oxadiazol-5-yl]-azetidin-1-yl}-(4,5-dimethyl-2-[1,2,3]triazol-2-yl-phenyl)-methanone] | 0.002 | 0.097 |
| Cc1cccc(-c2oc(C)nc2C(=O)N2CC[C@H]2c2nc(-c3cccc(Cl)c3C)no2)c1 [Example 71, {(S)-2-[3-(3-Chloro-2-methyl-phenyl)-[1,2,4]oxadiazol-5-yl]-azetidin-1-yl}-(2-methyl-5-m-tolyl-oxazol-4-yl)-methanone] | 0.555 | 0.693 |
| Cc1onc(-c2ccccc2Cl)c1C(=O)N1CC[C@H]1c1nc(-c2cccc(Cl)c2C)no1 [Example 72, {(S)-2-[3-(3-Chloro-2-methyl-phenyl)-[1,2,4]oxadiazol-5-yl]-azetidin-1-yl}-[3-(2-chloro-phenyl)-5-methyl-isoxazol-4-yl]-methanone] | 0.666 | 1.4 |
| Cc1c(Cl)cccc1-c1noc([C@@H]2CCN2C(=O)c2ccccc2-c2ccccc2)n1 [Example 73, Biphenyl-2-yl-{(S)-2-[3-(3-chloro-2-methyl-phenyl)-[1,2,4]oxadiazol-5-yl]-azetidin-1-yl}-methanone] | 0.02 | 0.383 |
| COc1cc(C(=O)N2CC[C@H]2c2nc(-c3cccc(Cl)c3C)no2)c(-n2nccn2)cc1Cl [Example 74, (4-Chloro-5-methoxy-2-[1,2,3]triazol-2-yl-phenyl)-{(S)-2-[3-(3-chloro-2-methyl-phenyl)-[1,2,4]oxadiazol-5-yl]-azetidin-1-yl}-methanone] | 0.006 | 0.578 |
| COc1cc(C(=O)N2CC[C@H]2c2nc(-c3ccccc3OC(F)(F)F)no2)c(-n2nccn2)cc1Cl [Example 75, (4-Chloro-5-methoxy-2-[1,2,3]triazol-2-yl-phenyl)-{(S)-2-[3-(2-trifluoromethoxy-phenyl)-[1,2,4]oxadiazol-5-yl]-azetidin-1-yl}-methanone] | 0.012 | 0.378 |
| Cc1c(Cl)cccc1-c1noc([C@@H]2CCN2C(=O)c2ccc(Cl)cc2-n2nccn2)n1 [Example 76, {(S)-2-[3-(3-Chloro-2-methyl-phenyl)-[1,2,4]oxadiazol-5-yl]-azetidin-1-yl}-(4-chloro-2-[1,2,3]triazol-2-yl-phenyl)-methanone] | 0.011 | 0.909 |
| O=C(c1ccc(Cl)cc1-n1nccn1)N1CC[C@H]1c1nc(-c2ccccc2OC(F)(F)F)no1 [Example 77, (4-Chloro-2-[1,2,3]triazol-2-yl-phenyl)-{(S)-2-[3-(2-trifluoromethoxy-phenyl)-[1,2,4]oxadiazol-5-yl]-azetidin-1-yl}-methanone] | 0.028 | 0.616 |
| Cc1ccc(C(=O)N2CC[C@H]2c2nc(-c3cccc(Cl)c3C)no2)c(-n2nccn2)c1 [Example 78, {(S)-2-[3-(3-Chloro-2-methyl-phenyl)-[1,2,4]oxadiazol-5-yl]-azetidin-1-yl}-(4-methyl-2-[1,2,3]triazol-2-yl-phenyl)-methanone] | 0.022 | 0.646 |
| Cc1ccc(C(=O)N2CC[C@H]2c2nc(-c3ccccc3OC(F)(F)F)no2)c(-n2nccn2)c1 [Example 79, (4-Methyl-2-[1,2,3]triazol-2-yl-phenyl)-{(S)-2-[3-(2-trifluoromethoxy-phenyl)-[1,2,4]oxadiazol-5-yl]-azetidin-1-yl}-methanone] | 0.017 | 0.338 |
| Cc1c(Cl)cccc1-c1noc([C@@H]2CCN2C(=O)c2cc(Cl)ccc2-n2nccn2)n1 [Example 80, {(S)-2-[3-(3-Chloro-2-methyl-phenyl)-[1,2,4]oxadiazol-5-yl]-azetidin-1-yl}-(5-chloro-2-[1,2,3]triazol-2-yl-phenyl)-methanone] | 0.049 | 0.756 |
| O=C(c1cc(Cl)ccc1-n1nccn1)N1CC[C@H]1c1nc(-c2ccccc2OC(F)(F)F)no1 [Example 81, (5-Chloro-2-[1,2,3]triazol-2-yl-phenyl)-{(S)-2-[3-(2-trifluoromethoxy-phenyl)-[1,2,4]oxadiazol-5-yl]-azetidin-1-yl}-methanone] | 0.047 | 0.338 |
| Cc1cc(-n2nccn2)c(C(=O)N2CC[C@H]2c2nc(-c3cccc(Cl)c3C)no2)cc1Cl [Example 82, {(S)-2-[3-(3-Chloro-2-methyl-phenyl)-[1,2,4]oxadiazol-5-yl]-azetidin-1-yl}-(5-chloro-4-methyl-2-[1,2,3]triazol-2-yl-phenyl)-methanone] | 0.01 | 0.171 |
| Cc1cc(-n2nccn2)c(C(=O)N2CC[C@H]2c2nc(-c3ccccc3OC(F)(F)F)no2)cc1Cl [Example 83, (5-Chloro-4-methyl-2-[1,2,3]triazol-2-yl-phenyl)-{(S)-2-[3-(2-trifluoromethoxy-phenyl)-[1,2,4]oxadiazol-5-yl]-azetidin-1-yl}-methanone] | 0.013 | 0.167 |
| Cc1ccc(-n2nccn2)c(C(=O)N2CC[C@H]2c2noc(-c3ccccc3OC(F)(F)F)n2)c1 [Example 84, (5-Methyl-2-[1,2,3]triazol-2-yl-phenyl)-{(S)-2-[5-(2-trifluoromethoxy-phenyl)-[1,2,4]oxadiazol-3-yl]-azetidin-1-yl}-methanone] | 0.011 | 0.103 |
| Cc1cc(C(=O)N2CC[C@H]2c2noc(-c3ccccc3OC(F)(F)F)n2)c(-n2nccn2)cc1C [Example 85, (4,5-Dimethyl-2-[1,2,3]triazol-2-yl-phenyl)-{(S)-2-[5-(2-trifluoromethoxy-phenyl)-[1,2,4]oxadiazol-3-yl]-azetidin-1-yl}-methanone] | 0.003 | 0.034 |
| COc1cc(C(=O)N2CC[C@H]2c2noc(-c3ccccc3OC(F)(F)F)n2)c(-n2nccn2)cc1C [Example 86, (5-Methoxy-4-methyl-2-[1,2,3]triazol-2-yl-phenyl)-{(S)-2-[5-(2-trifluoromethoxy-phenyl)-[1,2,4]oxadiazol-3-yl]-azetidin-1-yl}-methanone] | 0.004 | 0.193 |
| COc1cc(C(=O)N2CC[C@H]2c2noc(-c3ccccc3OC(F)(F)F)n2)c(-n2nccn2)cc1F [Example 87, (4-Fluoro-5-methoxy-2-[1,2,3]triazol-2-yl-phenyl)-{(S)-2-[5-(2-trifluoromethoxy-phenyl)-[1,2,4]oxadiazol-3-yl]-azetidin-1-yl}-methanone] | 0.078 | 1.34 |

— patent US9403813B2, “Azetidine amide derivatives as orexin receptor antagonists” (ACTELION PHARMACEUTICALS LTD, priority 2013, dated 2016)
